# US11957783B2, “Topical immunosensitizers to treat viral and fungal infections” (Squarex, LLC, priority 2018, dated 2024)
# Test system: peripheral blood mononuclear cells (PBMC)
# Assay: Cytokine and immune-function gene expression of PBMC in vitro (qRT-PCR, 41 immune-related genes)
# Type: cell-based, human
# Conditions: for Ratio of absolute IFNG gene expression in group A vs. Groups B + C pooled: group A day 57 after SADBE
# Description: After a screening visit at which blood was drawn to test for IgG antibody against HSV-1 and subjects were interviewed for inclusion/exclusion criteria, selected subjects returned for blood draws on day 1. After the blood draw on day 1, subjects in group A only were dosed with SADBE. A petrolatum donut was applied with a cotton swab to form about a 1 cm diameter donut on skin on the inner aspect of the upper arm. Then a separate cotton swab was dipped in a 2% SADBE solution (w/v) in DMSO, and the swab was then used to apply about 10-20 mg of solution over about a 1 cm diameter circle within the petrolatum donut. Immediately after application, the application site was covered with TEGADERM. Subjects were advised to remove the TEGADERM and rinse and wipe the spot three hours later. The group A subjects then returned for blood draws on days 15 and 57 and were queried about adverse events on those dates.
# PBMC were isolated using SepMate PBMC isolation tubes (Stem Cell Technologies, Vancouver, Canada) and Ficoll-Paque according to the manufacturer's instructions. PBMC were isolated and suspended in negative control medium at 2 million cells/ml. PBMC suspension (100 μL) was added to 100 μL of medium in quadruplicate in 96-well plates. The plates were prepared in advance and stored at −70° C. The wells were in five different conditions in quadruplicate with these final concentrations after addition of the 100 μL of PBMC suspension in negative control medium. • 1. Negative control in medium (RPMI with glutamine and pen/strep, supplemented with 10% human A/B serum). • 2. Medium plus 16 μg/ml protein from heat-inactivated HSV-1-infected Vero cell extracts. • 3. Medium plus heat-inactivated HSV-1 cell-free virus at a final 7.5 million pfu/ml. • 4. Medium plus Candida cell extract. (Greer item number M15A50, 20,000 pnu/ml allergenic extract mixed molds Candida albicans, was diluted 1/50 into medium). • 5. Positive control, medium plus 10 μg/ml concanavalin A.
# Two plates were created for each subject at each collection point. One plate was incubated for 2 days at 37° C. in a humidified 5% CO2 atmosphere and then RNA was isolated from the pooled contents of the 4 wells of a given condition for a specific patient, and the RNA was stored at −70° C. and subsequently used for quantitative real time PCR analysis of gene expression of 41 immune-related genes.
# As noted above, after 2 days of growth of the PBMC in a 37° C. humidified 5% CO2 incubator in a 96-well plate, four wells of a single condition (negative control, positive control, heat-inactivated HSV-1, HSV-1-infected cell extracts, or Candida extract) with cells from a single subject (200 μL in each well) were pooled, and the RNA was immediately isolated with Trizol reagent and chloroform by Qiagen RNeasy MiniElute clean up kit Qiagen cat #74204, according to manufacturer's instructions into a final volume of 13 μL, and then flash frozen on powdered dry ice, and stored at −70° C. in aliquots of 3 μL for RNA quantification and 10 μL for PCR analysis.
# RNA was preamplified with the Qiagen RT2 PreAMP cDNA synthesis kit (Ref. 330451) and custom RT2 PreAmp primer mix (Ref. 330141) starting with about 50 ng RNA according to the procedure of RT preamp cDNA synthesis handbook date March 2011, pages 17-20. The amplification reactions (final 120 μL) were frozen at −70° C. and used for qPCR analysis the next day.
# qPCR was done with the Qiagen RT PCR profiler gene analysis kit (catalog number 330451) using RT2 Sybr Green Rox qPCR Mastermix (24) (Part 330523) and Custom RT2 PCR array plates (Ref. 330171). For this 675 μL 2×RT2 SYBR green mastermix, 51 μL pre-AMP synthesis reaction, and 623 μL RNase free water were mixed, and then 25 μL of the mixture was added to 48 wells on the left or right half of the custom PCR plate. The PCR instrument was Applied Biosystems 7900HT fast real time PCR. […]
# [1] = PBMC + Candida extract, group A day 57 vs day 1 (pre-dose), one topical 2% SADBE dose
compound,measurement,setting,value
"CCCCOc1c(OCCCC)c(=O)c1=O [SADBE, 3,4-Dibutoxy-3-cyclobutene-1,2-dione]",LTA ratio of PBMC absolute gene expression day 57/day 1,"Group A, Neg. control",0.73
same,LYZ ratio of PBMC absolute gene expression day 15/day 1,"Group A, Neg. control",1.18
same,LYZ ratio of PBMC absolute gene expression day 57/day 1,"Group A, Neg. control",0.55
same,MX1 ratio of PBMC absolute gene expression day 15/day 1,"Group A, Neg. control",0.81
same,MX1 ratio of PBMC absolute gene expression day 57/day 1,"Group A, Neg. control",0.47
same,NOD1 ratio of PBMC absolute gene expression day 15/day 1,"Group A, Neg. control",1.14
same,NOD1 ratio of PBMC absolute gene expression day 57/day 1,"Group A, Neg. control",0.87
same,SPP1 ratio of PBMC absolute gene expression day 15/day 1,"Group A, Neg. control",1.35
same,SPP1 ratio of PBMC absolute gene expression day 57/day 1,"Group A, Neg. control",2.38
same,STAT1 ratio of PBMC absolute gene expression day 15/day 1,"Group A, Neg. control",0.86
same,STAT1 ratio of PBMC absolute gene expression day 57/day 1,"Group A, Neg. control",1.29
same,STAT4 ratio of PBMC absolute gene expression day 15/day 1,"Group A, Neg. control",0.94
same,STAT4 ratio of PBMC absolute gene expression day 57/day 1,"Group A, Neg. control",0.88
same,TNF ratio of PBMC absolute gene expression day 15/day 1,"Group A, Neg. control",0.91
same,TNF ratio of PBMC absolute gene expression day 57/day 1,"Group A, Neg. control",1.15
same,TNFSF10 ratio of PBMC absolute gene expression day 15/day 1,"Group A, Neg. control",0.93
same,TNFSF10 ratio of PBMC absolute gene expression day 57/day 1,"Group A, Neg. control",1
same,TNFSF13B ratio of PBMC absolute gene expression day 15/day 1,"Group A, Neg. control",1.03
same,TNFSF13B ratio of PBMC absolute gene expression day 57/day 1,"Group A, Neg. control",0.67
same,CCL2 ratio of PBMC absolute gene expression day 15/day 1,"Group A, Virus",0.88
same,CCL2 ratio of PBMC absolute gene expression day 57/day 1,"Group A, Virus",1.71
same,CCL3 ratio of PBMC absolute gene expression day 15/day 1,"Group A, Virus",0.84
same,CCL3 ratio of PBMC absolute gene expression day 57/day 1,"Group A, Virus",3.73
same,CCL7 ratio of PBMC absolute gene expression day 15/day 1,"Group A, Virus",0.72
same,CCL7 ratio of PBMC absolute gene expression day 57/day 1,"Group A, Virus",1.81
same,CCR5 ratio of PBMC absolute gene expression day 15/day 1,"Group A, Virus",0.87
same,CCR5 ratio of PBMC absolute gene expression day 57/day 1,"Group A, Virus",1.35
same,CD80 ratio of PBMC absolute gene expression day 15/day 1,"Group A, Virus",0.79
same,CD80 ratio of PBMC absolute gene expression day 57/day 1,"Group A, Virus",1.25
same,CXCL2 ratio of PBMC absolute gene expression day 15/day 1,"Group A, Virus",0.91
same,CXCL2 ratio of PBMC absolute gene expression day 57/day 1,"Group A, Virus",1.58
same,CXCL5 ratio of PBMC absolute gene expression day 15/day 1,"Group A, Virus",0.94
same,CXCL5 ratio of PBMC absolute gene expression day 57/day 1,"Group A, Virus",2.52
same,CXCL9 ratio of PBMC absolute gene expression day 15/day 1,"Group A, Virus",1.42
same,CXCL9 ratio of PBMC absolute gene expression day 57/day 1,"Group A, Virus",2.5
same,CXCL10 ratio of PBMC absolute gene expression day 15/day 1,"Group A, Virus",0.74
same,CXCL10 ratio of PBMC absolute gene expression day 57/day 1,"Group A, Virus",1.00
same,CXCL11 ratio of PBMC absolute gene expression day 15/day 1,"Group A, Virus",0.34
same,CXCL11 ratio of PBMC absolute gene expression day 57/day 1,"Group A, Virus",0.40
same,DDX58 ratio of PBMC absolute gene expression day 15/day 1,"Group A, Virus",0.66
same,DDX58 ratio of PBMC absolute gene expression day 57/day 1,"Group A, Virus",0.95
same,FOXP3 ratio of PBMC absolute gene expression day 15/day 1,"Group A, Virus",1.27
same,FOXP3 ratio of PBMC absolute gene expression day 57/day 1,"Group A, Virus",2.46
same,GATA3 ratio of PBMC absolute gene expression day 15/day 1,"Group A, Virus",0.89
same,GATA3 ratio of PBMC absolute gene expression day 57/day 1,"Group A, Virus",0.32
same,ICAM1 ratio of PBMC absolute gene expression day 15/day 1,"Group A, Virus",1.01
same,ICAM1 ratio of PBMC absolute gene expression day 57/day 1,"Group A, Virus",1.07
same,IFNA1 ratio of PBMC absolute gene expression day 15/day 1,"Group A, Virus",0.58
same,IFNA1 ratio of PBMC absolute gene expression day 57/day 1,"Group A, Virus",1.34
same,IFNB1 ratio of PBMC absolute gene expression day 15/day 1,"Group A, Virus",0.78
same,IFNB1 ratio of PBMC absolute gene expression day 57/day 1,"Group A, Virus",0.87
same,IFNG ratio of PBMC absolute gene expression day 15/day 1,"Group A, Virus",1.91
same,IFNG ratio of PBMC absolute gene expression day 57/day 1,"Group A, Virus",11.01
same,IL1B ratio of PBMC absolute gene expression day 15/day 1,"Group A, Virus",0.77
same,IL1B ratio of PBMC absolute gene expression day 57/day 1,"Group A, Virus",5.09
same,IL1R1 ratio of PBMC absolute gene expression day 15/day 1,"Group A, Virus",0.74
same,IL1R1 ratio of PBMC absolute gene expression day 57/day 1,"Group A, Virus",0.97
same,IL1RN ratio of PBMC absolute gene expression day 15/day 1,"Group A, Virus",0.77
same,IL1RN ratio of PBMC absolute gene expression day 57/day 1,"Group A, Virus",1.48
same,IL2 ratio of PBMC absolute gene expression day 15/day 1,"Group A, Virus",1.43
same,IL2 ratio of PBMC absolute gene expression day 57/day 1,"Group A, Virus",2.11
same,IL4 ratio of PBMC absolute gene expression day 15/day 1,"Group A, Virus",0.80
same,IL4 ratio of PBMC absolute gene expression day 57/day 1,"Group A, Virus",1.32
same,IL5 ratio of PBMC absolute gene expression day 15/day 1,"Group A, Virus",0.76
same,IL5 ratio of PBMC absolute gene expression day 57/day 1,"Group A, Virus",0.56
same,IL8 ratio of PBMC absolute gene expression day 15/day 1,"Group A, Virus",1.13
same,IL8 ratio of PBMC absolute gene expression day 57/day 1,"Group A, Virus",3.3
same,IL10 ratio of PBMC absolute gene expression day 15/day 1,"Group A, Virus",0.74
same,IL10 ratio of PBMC absolute gene expression day 57/day 1,"Group A, Virus",2.29
same,IL12A ratio of PBMC absolute gene expression day 15/day 1,"Group A, Virus",0.94
same,IL12A ratio of PBMC absolute gene expression day 57/day 1,"Group A, Virus",1.48
same,IL12B ratio of PBMC absolute gene expression day 15/day 1,"Group A, Virus",0.59
same,IL12B ratio of PBMC absolute gene expression day 57/day 1,"Group A, Virus",2.08
same,IL13 ratio of PBMC absolute gene expression day 15/day 1,"Group A, Virus",1.43
same,IL13 ratio of PBMC absolute gene expression day 57/day 1,"Group A, Virus",3.02
same,IL15 ratio of PBMC absolute gene expression day 15/day 1,"Group A, Virus",1.01
same,IL15 ratio of PBMC absolute gene expression day 57/day 1,"Group A, Virus",1.54
same,IL16 ratio of PBMC absolute gene expression day 15/day 1,"Group A, Virus",0.84
same,IL16 ratio of PBMC absolute gene expression day 57/day 1,"Group A, Virus",0.82
same,JAK2 ratio of PBMC absolute gene expression day 15/day 1,"Group A, Virus",0.84
same,JAK2 ratio of PBMC absolute gene expression day 57/day 1,"Group A, Virus",1.26
same,LTA ratio of PBMC absolute gene expression day 15/day 1,"Group A, Virus",1.26
same,LTA ratio of PBMC absolute gene expression day 57/day 1,"Group A, Virus",1.84
same,LYZ ratio of PBMC absolute gene expression day 15/day 1,"Group A, Virus",1.04
same,LYZ ratio of PBMC absolute gene expression day 57/day 1,"Group A, Virus",0.53
same,MX1 ratio of PBMC absolute gene expression day 15/day 1,"Group A, Virus",0.49
same,MX1 ratio of PBMC absolute gene expression day 57/day 1,"Group A, Virus",0.66
same,NOD1 ratio of PBMC absolute gene expression day 15/day 1,"Group A, Virus",0.85
same,NOD1 ratio of PBMC absolute gene expression day 57/day 1,"Group A, Virus",1.14
same,SPP1 ratio of PBMC absolute gene expression day 15/day 1,"Group A, Virus",1.64
same,SPP1 ratio of PBMC absolute gene expression day 57/day 1,"Group A, Virus",15.29
same,STAT1 ratio of PBMC absolute gene expression day 15/day 1,"Group A, Virus",0.80
same,STAT1 ratio of PBMC absolute gene expression day 57/day 1,"Group A, Virus",1.41
same,STAT4 ratio of PBMC absolute gene expression day 15/day 1,"Group A, Virus",1.03
same,STAT4 ratio of PBMC absolute gene expression day 57/day 1,"Group A, Virus",1.69
same,TNF ratio of PBMC absolute gene expression day 15/day 1,"Group A, Virus",0.97
same,TNF ratio of PBMC absolute gene expression day 57/day 1,"Group A, Virus",1.19
same,TNFSF10 ratio of PBMC absolute gene expression day 15/day 1,"Group A, Virus",0.68
same,TNFSF10 ratio of PBMC absolute gene expression day 57/day 1,"Group A, Virus",1.01
same,TNFSF13B ratio of PBMC absolute gene expression day 15/day 1,"Group A, Virus",0.77
same,TNFSF13B ratio of PBMC absolute gene expression day 57/day 1,"Group A, Virus",1.23
same,Ratio of absolute IFNG gene expression in group A vs. Groups B + C pooled,HSV-infected cell extracts,1.896
same,Ratio of absolute IFNG gene expression in group A vs. Groups B + C pooled,Neg Control medium,1.190
same,ratio of absolute expression in A57 vs. A1: CCL2,[1],1.16
same,ratio of absolute expression in A57 vs. A1: CCL3,[1],1.79
same,ratio of absolute expression in A57 vs. A1: CCL7,[1],2.03
same,ratio of absolute expression in A57 vs. A1: CCR5,[1],1.42
same,ratio of absolute expression in A57 vs. A1: CD80,[1],1.57
same,ratio of absolute expression in A57 vs. A1: CXCL2,[1],1.1
same,ratio of absolute expression in A57 vs. A1: CXCL5,[1],1.45
same,ratio of absolute expression in A57 vs. A1: CXCL9,[1],14.21
same,ratio of absolute expression in A57 vs. A1: CXCL10,[1],12.8
same,ratio of absolute expression in A57 vs. A1: CXCL11,[1],2.53
same,ratio of absolute expression in A57 vs. A1: DDX58,[1],1.29
